In patent publication US10149472B2, “Chitin oligomers for use in promoting non-leguminous plant growth and development” (Wisconsin Alumni Research Foundation, priority 2015, dated 2018):

How the values were obtained:
[1] = test system: M. truncatula; assay: Lateral root emergence in M. truncatula; format: in vivo, Medicago truncatula; settings: 10^−7 M; fold induction relative to the control; FIG. 7
Method: M. truncatula roots were treated with 10^−7 M CO4 or 10^−7 M NS-LCO and the effect on lateral root emergence was measured. The numbers in parentheses indicate the number of plants analyzed. The significance of the difference to the […] control plants, as measured using a t-test, is indicated. The treatments are measured as fold induction relative to the control. Error bars represent the standard error.
Accordingly, the disclosed method is limited in scope to treating non-leguminous plants, or seeds, seedlings or plant parts thereof.

[2] = test system: Rice; assay: Seed treatment of rice in vitro (plates); format: in vivo; settings: seed coating 10^−6 M; 33 days; vs ethanol control; FIG. 10
Method: Rice seeds were sterilized using 2% bleach. The sterilized seeds were then divided among 3 treatment groups of 10 seeds each into 15 ml falcon tubes. To the control tube, 0.5% ethanol in water was added. To the CO4 tube, 100 μl of 10^−6 M CO4 solution was added. To the CO8 tube, 100 μl of 10^−6 M CO8 solution was added. Each tube was then shaken to coat the seeds. The coated seeds were then placed on sterile Petri dishes in a hood and were left to dry overnight in the hood. The seeds were then germinated on damp germination paper in sterile Petri dishes for 5 days. The resulting seedlings were transferred to Fahräeus medium plates containing damp germination paper, and the plates were wrapped in Parafilm®. The roots part of the plate was covered with aluminum foil. The plants were grown at room temperature under continuous light for 33 days. The length of the shoot and root systems was measured for all plants.

[3] = test system: Rice; assay: Foliar treatment of rice; format: in vivo; settings: foliar 10^−6 M with 0.05% Silwet L-77; for shoot length: FIG. 12A
Method: Rice seeds were surface sterilized using 2% bleach. Seeds were then germinated on damp germination paper in sterile Petri dishes for 5 days. The seedlings were then transferred to Fahraeus medium plates containing damp germination paper. The plates were wrapped in Parafilm®, and the roots part of the plate covered with aluminum foil.
The plants were grown at room temperature under continuous light for 21 days. The plants were then transferred to moistened SUNGRO® soil pots (8×8×10 cm) and grown for 3 days under greenhouse condition. The plants were hydrated by pouring water into the tray underneath the pots.
The soil surface was then covered with plastic wrap to prevent any liquid droplets from contacting the soil. Using painting brushes, the front, and back of the plant leaves were treated with 3 ml of chitin derived compounds (CO4 and CO8) at 10^−6 M or a control (0.5% ethanol), each including 0.05% of Silwet L-77 (surfactant). Eleven plants were treated with each solution. The plants were subsequently grown for 14 days, and the shoot length was measured. Once a week, half-strength Hoagland solution was added into the trays underneath the pots. The plants were grown for another 4 days, and the lengths of the shoot and root systems were measured.

CC(=O)N[C@H]1[C@H](O[C@H]2[C@H](O)[C@@H](NC(C)=O)C(O)O[C@@H]2CO)O[C@H](CO)[C@@H](O[C@@H]2O[C@H](CO)[C@@H](O[C@@H]3O[C@H](CO)[C@@H](O)[C@H](O)[C@H]3NC(C)=O)[C@H](O)[C@H]2NC(C)=O)[C@@H]1O (stereo partly drawn) [CO4, tetra-N-acetylchitotetraose]
lateral root emergence [1]: could not induce lateral root emergence | root system length [2]: significantly increased | shoot length [2]: significantly increased | shoot length ([3]; day 14 after treatment): significantly increased | shoot length ([3]; day 18 after treatment): significance was even higher | root system length ([3]; day 18 after treatment, FIG. 12B): significantly promoted
